Experimental data from PMC8449657, “Identification of a self‐sufficient cytochrome P450 monooxygenase from Cupriavidus pinatubonensis JMP134 involved in 2‐hydroxyphenylacetic acid catabolism, via homogentisate pathway” (Microbial Biotechnology, 2021).

Target: T1, OhpA (Cupriavidus pinatubonensis, UniProt Q46QG0)
T1 construct: gene Reut_B5278; full length, 783 aa, untagged as far as told; pBS1-ohpA (PBAD) expressed in Pseudomonas putida KT2440, assayed in cell extract
T1 sequence (Q46QG0 1-783): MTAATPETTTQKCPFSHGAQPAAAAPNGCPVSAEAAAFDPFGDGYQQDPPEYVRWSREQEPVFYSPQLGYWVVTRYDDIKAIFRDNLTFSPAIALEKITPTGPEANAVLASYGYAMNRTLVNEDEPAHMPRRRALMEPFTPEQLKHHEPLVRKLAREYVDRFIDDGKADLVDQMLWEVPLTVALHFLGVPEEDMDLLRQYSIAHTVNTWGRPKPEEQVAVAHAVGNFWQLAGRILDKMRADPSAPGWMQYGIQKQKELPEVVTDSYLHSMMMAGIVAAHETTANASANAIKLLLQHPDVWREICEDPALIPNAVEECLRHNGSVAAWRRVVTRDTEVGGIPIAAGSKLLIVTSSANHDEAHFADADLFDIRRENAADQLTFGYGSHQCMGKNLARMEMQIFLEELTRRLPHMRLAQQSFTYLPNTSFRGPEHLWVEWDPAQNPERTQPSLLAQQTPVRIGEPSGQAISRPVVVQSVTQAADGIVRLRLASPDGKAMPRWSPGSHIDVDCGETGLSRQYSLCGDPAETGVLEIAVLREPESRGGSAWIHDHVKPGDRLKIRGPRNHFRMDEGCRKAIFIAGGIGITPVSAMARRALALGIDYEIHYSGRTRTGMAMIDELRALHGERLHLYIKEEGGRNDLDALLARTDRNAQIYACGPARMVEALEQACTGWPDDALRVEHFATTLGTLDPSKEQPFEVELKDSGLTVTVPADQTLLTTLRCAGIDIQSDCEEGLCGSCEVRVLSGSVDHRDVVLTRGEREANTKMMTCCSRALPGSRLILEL
Experiment: substrate-dependent NADH oxidation at […] nm in extract of P. putida KT2440 pBS1-ohpA
Assay type: biochemical
Settings: 0.2 mM NADH, 100 uM 2-HPA, 1 uM FAD, 35 mM Tris/acetate pH 7.5

NC(=O)C1=CN([C@@H]2O[C@H](COP(=O)(O)OP(=O)(O)OC[C@H]3O[C@@H](n4cnc5c(N)ncnc54)[C@H](O)[C@@H]3O)[C@@H](O)[C@H]2O)C=CC1 [NADH]
substrate-dependent NADH oxidation at 340 nm in extract of P. putida KT2440 pBS1: we assayed the substrate‐dependent NADH oxidation in cell extracts of P. putida KT2440 harbouring pBS1‐ohpA
